What was measured:
[1] = test system: anesthetized dogs (left ventricular dP/dt); assay: Anesthetized Dog: inotropic effect (increase in baseline dP/dt); type: in vivo; settings: infusion of atenolol
Method: Inotropic effects were evaluated in barbiturate-anesthetized dogs by differentiating left intraventricular pressure. This procedure was carried out essentially as described by M. K. Grizzel et al in the FASEB Journal, Vol. 3, page 1039, abstract 4728 (1989). […] Cardiac output was determined via thermodilution with a Spectramed computer (Starcom, Oxnard, Calif.) and a 5F Swan Ganz catheter which was inserted into the right jugular vein and positioned in the pulmonary artery. […] A lead II electrocardiogram was measured using subcutaneous electrodes. […] Rectal temperature was monitored and maintained at 37°-38° C. with a heating pad (Baxter Health Care model K20, McGaw Park, Ill.). All variables were recorded using a Gould 3800S physiograph.
Isoproterenol ([…]) was injected i.v. into the cephalic vein at 10 min intervals except for when the test drug infusion was begun. […] Inhibition of the isoproterenol responses on contractibility (dP/dt), heart rate and diastolic blood pressure were determined at each dose of test compound. The inotropic effect of each compound was determined by comparing the level of dP/dt at the end of each 10 min period to that of the level of dP/dt just prior to the infusion of test compound. […]

rat aorta [2] = assay: Rat Aorta Protocol (relaxation of phenylephrine-contracted rat aorta rings); type: cell-based; settings: phenylephrine 1×10^-7 M, methylene blue and propranolol present, endothelium removed, read-out: IC50 (concentration producing a relaxation equivalent to 50% of the maximal relaxation induced by nitroprusside)
Method: Such vasorelaxation appears to be related to inhibition of the phosphodiesterase (PDE) isozyme related to the cardiac sarcoplasmic reticulum. Thus, relaxation of rat aorta can be used as a screen to eliminate compounds which are not PDE inhibitors prior to testing for actual inotropic activity.
Rings of rat aorta (endothelium removed) were prepared for the measurement of isometric force in isolated tissue organ chambers essentially as previously described by T. J. Rimele et al in the Journal of Pharmacol. Exp. Ther. 245:102-111 (1988). The experimental portion of the protocol began with the addition of methylene blue (1×10^-5 M) and propranolol (1×10^-6 M) to each organ chamber to inhibit basal cGMP accumulation due to soluble guanylate cyclase and beta-adrenoceptors.Phenylephrine (1×10^-7 M) was then added and the rings were allowed to obtain a stable contractile response after which time, the test compound was added in a cumulative fashion. The relaxation induced by each concentration of the test compound was expressed as a percentage of the maximal relaxation produced by nitroprusside (1×10^-4 M) The results were graphically represented as a plot of the percentage relaxation vs. the negative log of the molar concentration of the test compound. […]

rat aorta [3] = settings: R. F. Kauffman et al., J. Pharmacol. Exp. Ther. 242:864-872 (1987); cited from earlier work

| SMILES | effect of atenolol on the inotropic effects [1] | IC50 (rat aorta [2]) | relaxation of rat aorta (rat aorta [3]) |
| --- | --- | --- | --- |
| O=C(COc1ccc(C2=NNC(=O)CC2)cc1Cl)NCCNC[C@H](O)COc1ccccc1 [Example 19, 6-{4-[N-[2-[3-phenoxy-2-hydroxypropylamino]ethyl]carbamoylmethoxy]-3-chlorophenyl}-4,5-dihydro-3(2H)-pyridazinone] | not blocked by atenolol | 340 nM |  |
| Cc1[nH]c(=O)c(C#N)cc1-c1ccncc1 [milrinone] |  |  | marked relaxation |
| CSc1ccc(C(=O)c2[nH]c(=O)[nH]c2C)cc1 [enoximone] |  |  | marked relaxation |

— patent US5053338A, “Kinetic resolution of pyridazinones using lipase” (Glaxo Inc., priority 1990, dated 1991)
